Measured values: patent US5892045A, “4-aryl-3-hydroxyquinolin-2-one derivatives as ion channel modulators” (priority 1997, dated 1999)

Tests used:
[1] = test system: cloned mammalian (mSlo or hSlo) BK channels expressed in Xenopus oocytes; experiment: Increase of cloned BK-mediated outward current, two-electrode voltage clamp in Xenopus oocytes (IBTX-sensitive current); assay type: cell-based; settings: at 20 μM expressed as percent of controls; at least 5 oocytes
Procedure: The ability of compounds described in the present invention to open BK channels and increase whole-cell outward (K^+) BK-mediated currents was assessed under voltage-clamp conditions by determining their ability to increase cloned mammalian (mSlo or hSlo) BK-mediated outward current heterologously expressed in Xenopus oocytes [Butler, A., et al., Science, 261: 221-224 (1993); and Dworetzky, S. I., et al., Mol. Brain Res., 27: 189-193 (1994)]. The two BK constructs employed represent nearly structurally identical homologous proteins, and have proven to be pharmacologically identical in our tests. […] The relative contribution of BK channels current to total outward current was determined by subtraction of the current remaining in the presence of IBTX (non-BK current) from the current profiles obtained in all other experimental conditions (control, drug, and wash). […] All compounds were tested in at least 5 oocytes and are reported at the single concentration of 20 μM; the effect of the selected compounds of Formula I on BK current was expressed as the percent of control IBTX-sensitive current and is listed in Table I. Recordings were accomplished using standard two-electrode voltage clamp techniques [Stuhmer, W., et al., Methods in Enzymology, Vol. 207: 319-339 (1992)]; voltage-clamp protocols consisted of 500-750 ms duration step depolarization from a holding potential of -60 mV to +140 mV in 20 mV steps. The experimental media (modified Barth's solution) consisted of (in mM): NaCl (88), NaHCO3 (2.4), KCl (1.0), HEPES (10), MgSO4 (0.82), Ca(NO3)2 (0.33), CaCl2 (0.41); pH 7.5.

[2] = test system: Ca^2+ -activated potassium channels; settings: outside-out patches, myelinated nerve fibers; Koh 1994; cited from earlier work
BK channel [3] = settings: very limited electrophysiological experiments; Laurent 1993; cited from earlier work
BK channel [4] = settings: Galvez 1990; cited from earlier work

| Compound | BK Current (percent of control IBTX-sensitive current) [1] | other results |
| --- | --- | --- |
| O=c1[nH]c2cc(Cl)cc(Cl)c2c(-c2cc(Cl)ccc2O)c1O [Example 2, 5,7-Dichloro-4-(5-chloro-2-hydroxyphenyl)-3-hydroxy-2(1H)-quinolinone] | ++ (>150%) | – |
| COc1ccc(Br)cc1-c1c(O)c(=O)[nH]c2ccc([N+](=O)[O-])cc12 [Example 3] | + (100-150%) | – |
| COc1ccc(Br)cc1-c1c(O)c(=O)[nH]c2cc(Cl)cc(Cl)c12 [Example 4] | ++ (>150%) | – |
| COc1ccc(Cl)cc1-c1c(O)c(=O)[nH]c2cc(Cl)ccc12 [Example 5] | + (100-150%) | – |
| O=c1[nH]c2ccccc2c(-c2cc(Br)ccc2O)c1O [Example 6] | + (100-150%) | – |
| Cn1c(=O)c(O)c(-c2cc(Br)ccc2O)c2ccccc21 [Example 7] | + (100-150%) | – |
| O=c1[nH]c2ccccc2c(-c2cc(Cl)ccc2O)c1O [Example 8] | + (100-150%) | – |
| O=c1[nH]c2ccc([N+](=O)[O-])cc2c(-c2cc(Br)ccc2O)c1O [Example 9] | ++ (>150%) | – |
| O=c1[nH]c2cc(C(F)(F)F)ccc2c(-c2cc(Cl)ccc2O)c1O [Example 10] | ++ (>150%) | – |
| O=c1[nH]c2cc(C(F)(F)F)ccc2c(-c2cc(Br)ccc2O)c1O [Example 11] | ++ (>150%) | – |
| O=c1[nH]c2cc(Cl)cc(Cl)c2c(-c2cc(Br)ccc2O)c1O [Example 12] | ++ (>150%) | – |
| O=c1[nH]c2ccc(Cl)cc2c(-c2cc(Cl)ccc2O)c1O [Example 13] | + (100-150%) | – |
| O=c1[nH]c2cccc(Cl)c2c(-c2cc(Cl)ccc2O)c1O [Example 14] | + (100-150%) | – |
| O=c1[nH]c2cc(Cl)ccc2c(-c2cc(Cl)ccc2O)c1O [Example 15] | ++ (>150%) | – |
| O=c1[nH]c2ccc(C(F)(F)F)cc2c(-c2cc(Cl)ccc2O)c1O [Example 16] | ++ (>150%) | – |
| O=c1[nH]c2ccc(C(F)(F)F)cc2c(-c2cc(Br)ccc2O)c1O [Example 17] | ++ (>150%) | – |
| Cn1c(=O)c(O)c(-c2cc(Cl)ccc2O)c2c(Cl)cc(Cl)cc21 [Example 18] | ++ (>150%) | – |
| O=c1[nH]c2ccc(Br)cc2c(-c2cc(Br)ccc2O)c1O [Example 19] | ++ (>150%) | – |
| O=c1[nH]c2ccc(Br)cc2c(-c2cc(Cl)ccc2O)c1O [Example 20] | ++ (>150%) | – |
| O=c1[nH]c2c(Cl)cccc2c(-c2cc(Cl)ccc2O)c1O [Example 21] | + (100-150%) | – |
| O=C(CCc1ccc(O)cc1)c1c(O)cc(O)cc1O [Phloretin] | – | open probability of Ca^2+ -activated potassium channels [2]: increase the open probability |
| CNc1nc(Br)cn2cc(C#N)nc12 [SCA-40, 6-Bromo-8-(methylamino) imidazo[1,2-a]pyrazine-2-carbonitrile] | – | BK channel opening activity (BK channel [3]): BK channel opener |
| iberiotoxin: specific and potent BK channel-blocking toxin iberiotoxin (IBTX) (QFTDVDCSVSKECWSVCKDLFGVDRGKCMGKKCRCYQ; UniProt P24663 1-37, looked up) | – | BK channel block (BK channel [4]): specific and potent BK channel-blocking toxin |
